# Earlier results in patent US12637520B2, “Conjugation chemistry for catalytic antibody 38C2” (UNIVERSITY OF FLORIDA RESEARCH FOUNDATION, INCORPORATED, priority 2019, dated 2026).
# Biological target: open conformation of integrin α4β1 (Homo sapiens, UniProt P05556+P13612)
# Details: cited from earlier work
# Chain of open conformation of integrin α4β1 (P13612 34-1032): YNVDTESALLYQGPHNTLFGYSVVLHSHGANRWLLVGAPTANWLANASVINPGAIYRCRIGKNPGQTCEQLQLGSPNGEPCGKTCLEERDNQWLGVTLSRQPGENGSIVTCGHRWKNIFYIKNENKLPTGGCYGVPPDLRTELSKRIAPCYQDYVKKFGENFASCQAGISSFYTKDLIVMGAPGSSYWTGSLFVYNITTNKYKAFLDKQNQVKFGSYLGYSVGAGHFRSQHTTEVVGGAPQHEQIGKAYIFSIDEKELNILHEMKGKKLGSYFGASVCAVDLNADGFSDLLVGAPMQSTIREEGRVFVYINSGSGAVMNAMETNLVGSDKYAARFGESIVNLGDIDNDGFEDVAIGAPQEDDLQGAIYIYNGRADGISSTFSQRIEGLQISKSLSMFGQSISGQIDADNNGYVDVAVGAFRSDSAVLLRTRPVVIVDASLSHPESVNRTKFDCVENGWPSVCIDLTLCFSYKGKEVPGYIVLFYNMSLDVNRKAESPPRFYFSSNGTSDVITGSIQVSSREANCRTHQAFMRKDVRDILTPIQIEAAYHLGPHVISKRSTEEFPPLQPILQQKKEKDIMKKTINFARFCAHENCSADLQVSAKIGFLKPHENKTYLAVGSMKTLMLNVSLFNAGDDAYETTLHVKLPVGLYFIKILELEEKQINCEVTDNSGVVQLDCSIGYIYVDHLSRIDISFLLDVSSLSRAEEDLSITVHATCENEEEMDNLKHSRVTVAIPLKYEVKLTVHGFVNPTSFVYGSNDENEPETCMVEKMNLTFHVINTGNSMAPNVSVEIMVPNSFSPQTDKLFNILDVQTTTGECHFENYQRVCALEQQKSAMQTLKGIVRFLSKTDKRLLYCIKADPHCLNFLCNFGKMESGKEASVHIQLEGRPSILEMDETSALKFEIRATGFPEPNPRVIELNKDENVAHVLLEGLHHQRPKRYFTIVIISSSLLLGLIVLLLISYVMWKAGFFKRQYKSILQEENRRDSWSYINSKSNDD
# Chain of open conformation of integrin α4β1 (P05556 21-798): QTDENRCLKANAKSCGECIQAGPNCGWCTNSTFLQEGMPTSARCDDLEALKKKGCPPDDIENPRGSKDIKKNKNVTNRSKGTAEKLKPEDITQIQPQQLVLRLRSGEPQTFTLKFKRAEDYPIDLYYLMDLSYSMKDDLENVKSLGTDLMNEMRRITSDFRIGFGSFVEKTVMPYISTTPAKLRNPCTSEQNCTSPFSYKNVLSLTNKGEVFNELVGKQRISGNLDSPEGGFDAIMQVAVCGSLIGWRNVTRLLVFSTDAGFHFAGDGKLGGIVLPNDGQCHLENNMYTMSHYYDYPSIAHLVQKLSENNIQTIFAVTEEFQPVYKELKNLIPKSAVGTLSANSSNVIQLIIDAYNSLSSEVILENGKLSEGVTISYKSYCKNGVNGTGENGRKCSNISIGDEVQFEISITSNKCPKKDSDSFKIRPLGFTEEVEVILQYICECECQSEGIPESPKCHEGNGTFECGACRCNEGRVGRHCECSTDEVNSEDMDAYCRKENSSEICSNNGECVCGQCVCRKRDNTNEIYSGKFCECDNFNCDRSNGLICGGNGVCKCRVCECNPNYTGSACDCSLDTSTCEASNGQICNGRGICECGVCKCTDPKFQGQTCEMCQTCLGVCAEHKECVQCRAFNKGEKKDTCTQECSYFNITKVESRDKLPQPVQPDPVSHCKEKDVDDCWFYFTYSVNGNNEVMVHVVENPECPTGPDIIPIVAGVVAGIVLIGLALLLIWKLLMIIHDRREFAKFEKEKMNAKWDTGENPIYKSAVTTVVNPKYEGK
structure (smiles),measurement,value
Cc1ccccc1NC(=O)Nc1ccc(CC(=O)N[C@@H](CCCCNC(=O)/C=C/c2cccnc2)C(=O)N[C@@H](CCCC(=O)O)C(=O)NC2(C(N)=O)CCCCC2)cc1 [LLP2A],affinity for open conformation of integrin α4β1,picomolar-affinity
